Reference: ChEMBL document CHEMBL6092179, “Discovery of CLKs inhibitors for the treatment of non-small cell lung cancer” (Eur J Med Chem, 2024)
Active and inactive are the calls of the source. The rule behind the calls is not given here.

What was measured:
[1] = test system: NCI-H1299; test: cells; settings: Homo sapiens, NCI-H1299, 48 h
Description: Antiproliferative activity against human NCI-H1299 cells assessed as inhibition of cell growth incubated for 48 hrs by MTT assay

[2] = target: Dual specificity protein kinase CLK3 (Homo sapiens, UniProt P49761); test: Inhibition of CLK3 (unknown origin) by ADP-Glo assay
[3] = target: T1, Dual specificity protein kinase CLK2 (Homo sapiens, UniProt P49760); test: Inhibition of CLK2 (unknown origin) by ADP-Glo assay
Target sequence in this assay (P49760 whole entry): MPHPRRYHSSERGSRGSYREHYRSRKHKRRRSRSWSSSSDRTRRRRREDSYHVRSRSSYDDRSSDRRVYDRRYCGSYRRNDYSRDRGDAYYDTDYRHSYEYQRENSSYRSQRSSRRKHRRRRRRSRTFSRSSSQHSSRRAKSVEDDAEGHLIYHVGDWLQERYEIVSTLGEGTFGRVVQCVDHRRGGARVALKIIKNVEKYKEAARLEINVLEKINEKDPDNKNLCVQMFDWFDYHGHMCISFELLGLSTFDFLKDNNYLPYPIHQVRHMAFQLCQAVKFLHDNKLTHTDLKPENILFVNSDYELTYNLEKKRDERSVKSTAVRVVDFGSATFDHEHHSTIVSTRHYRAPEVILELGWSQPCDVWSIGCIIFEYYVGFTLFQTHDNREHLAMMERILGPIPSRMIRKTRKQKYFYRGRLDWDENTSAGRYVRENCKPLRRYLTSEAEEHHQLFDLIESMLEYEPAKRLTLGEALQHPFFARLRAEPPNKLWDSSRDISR

[4] = test system: NCI-H1299; test: Inhibition of colony formation in human NCI-H1299 cells at 1 uM incubated for 7 days by crystal violet staining based analysis; type: functional, cell-based; settings: time 7.0 day
[5] = target: T1, Dual specificity protein kinase CLK2; settings: dose 20.0 nM
Target sequence in this assay (P49760 whole entry, looked up): as the sequence (P49760 whole entry) above
Description: Inhibition of CLK2 (unknown origin) at 20 nM by ADP-Glo assay relative to control

[6] = test system: Osimertinib-resistant NCI-H1975 cell; test: cells; settings: Homo sapiens, 48 h
Description: Antiproliferative activity against human Osimertinib-resistant NCI-H1975 cell assessed as inhibition of cell growth incubated for 48 hrs by MTT assay

[7] = test system: NCI-H1975; test: cells; settings: Homo sapiens, NCI-H1975, 48 h
Description: Antiproliferative activity against human NCI-H1975 cells assessed as inhibition of cell growth incubated for 48 hrs by MTT assay

[8] = cells; settings: Homo sapiens, Osimertinib-resistant HCC827AR cell, 48 h
Description: Antiproliferative activity against human Osimertinib-resistant HCC827AR cell assessed as inhibition of cell growth incubated for 48 hrs by MTT assay

[9] = test system: HCC827; test: cells; settings: Homo sapiens, HCC827, 48 h
Description: Antiproliferative activity against human HCC827 cells assessed as inhibition of cell growth incubated for 48 hrs by MTT assay

[10] = test system: A549; test: cells; settings: Homo sapiens, A549, 48 h
Description: Antiproliferative activity against human A549 cells assessed as inhibition of cell growth incubated for 48 hrs by MTT assay

Dual specificity protein kinase CLK3, sequence (P49761 whole entry): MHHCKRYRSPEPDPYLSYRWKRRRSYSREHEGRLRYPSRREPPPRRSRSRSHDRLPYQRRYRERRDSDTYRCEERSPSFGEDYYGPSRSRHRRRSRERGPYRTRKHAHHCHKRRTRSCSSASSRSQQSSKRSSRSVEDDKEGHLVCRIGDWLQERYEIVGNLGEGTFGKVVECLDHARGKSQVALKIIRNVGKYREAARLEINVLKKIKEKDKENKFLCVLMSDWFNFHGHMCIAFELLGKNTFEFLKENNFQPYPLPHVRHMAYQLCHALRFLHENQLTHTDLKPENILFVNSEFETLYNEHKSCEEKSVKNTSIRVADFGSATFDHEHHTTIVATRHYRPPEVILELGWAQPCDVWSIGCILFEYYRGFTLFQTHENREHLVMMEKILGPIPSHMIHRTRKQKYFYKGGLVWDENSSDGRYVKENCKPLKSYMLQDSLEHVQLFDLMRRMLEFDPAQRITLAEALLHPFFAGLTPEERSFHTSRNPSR

Row | SMILES | IC50 [1] [nM] | also measured
1 | CC(C)CC(=O)Nc1cncc(-c2ccc3[nH]nc(-c4nc(-c5ccco5)c(-c5ccco5)[nH]4)c3c2)c1 | 1530 | 
2 | CC(C)C[C@H](N)COc1cncc(-c2ccc3[nH]nc(-c4nc(-c5ccco5)c[nH]4)c3c2)c1 | 480 | 
3 | Cc1nc(-c2n[nH]c3ccc(-c4cncc(CN5CCC(F)(F)C5)c4)cc23)[nH]c1-c1ccccc1 | 1620 | 
4 | FC1(F)CCN(Cc2cncc(-c3ccc4[nH]nc(-c5nc(-c6ccsc6)c[nH]5)c4c3)c2)C1 | 1380 | 
5 | CC(C)CC(=O)Nc1cncc(-c2ccc3[nH]nc(-c4nc(-c5cccnc5)c[nH]4)c3c2)c1 | 820 | 
6 | FC1(F)CCN(Cc2cncc(-c3ccc4[nH]nc(-c5nc(-c6ccccc6)c[nH]5)c4c3)c2)C1 | 1270 | 
7 | CC(C)C[C@H](N)COc1cncc(-c2ccc3[nH]nc(-c4nc(-c5ccccc5)c(-c5ccccc5)[nH]4)c3c2)c1 | 2380 | 
8 | CC(C)CC(=O)Nc1cncc(-c2ccc3[nH]nc(-c4nc(-c5ccco5)c[nH]4)c3c2)c1 | 1420 | 
9 | FC1(F)CCN(Cc2cncc(-c3ccc4[nH]nc(-c5nc(-c6cccnc6)c[nH]5)c4c3)c2)C1 | 260 | 
10 | CC(C)CC(=O)Nc1cncc(-c2ccc3[nH]nc(-c4nc(-c5cccc(C(F)(F)F)c5)c[nH]4)c3c2)c1 | 3070 | 
11 | Cc1[nH]nc2ccc(-c3cncc(OC[C@@H](N)CC(C)C)c3)cc12 | 2510 | IC50 [2]: > 100 nM; IC50 [3]: 4.1 nM; inhibition [4]: inactive; inhibition [5]: 98.5%; IC50 [6]: 1920 nM; IC50 [7]: 1720 nM; IC50 [8]: 3670 nM; IC50 [9]: 3950 nM; IC50 [10]: 3950 nM
12 | CCc1[nH]c(-c2n[nH]c3ccc(-c4cncc(NC(=O)CC(C)C)c4)cc23)nc1C | 1620 | 
13 | FC1(F)CCN(Cc2cncc(-c3ccc4[nH]nc(-c5nc(-c6ccccc6)c(-c6ccccc6)[nH]5)c4c3)c2)C1 | 6580 | 

Now from value to compound, other results behind:

Row | IC50 [1] [nM] | SMILES | also measured
14 | 1150 | CC(C)C[C@H](N)COc1cncc(-c2ccc3[nH]nc(-c4nc(-c5ccsc5)c[nH]4)c3c2)c1 | 
15 | 700 | CC(C)C[C@H](N)COc1cncc(-c2ccc3[nH]nc(-c4nc(-c5cccnc5)c[nH]4)c3c2)c1 | 
16 | 1680 | CC(C)C[C@H](N)COc1cncc(-c2ccc3[nH]nc(-c4nc(-c5ccco5)c(-c5ccco5)[nH]4)c3c2)c1 | 
17 | 1160 | CC(C)C[C@H](N)COc1cncc(-c2ccc3[nH]nc(-c4nc(-c5cccc(C(F)(F)F)c5)c[nH]4)c3c2)c1 | 
18 | 720 | FC1(F)CCN(Cc2cncc(-c3ccc4[nH]nc(-c5nc(-c6ccco6)c[nH]5)c4c3)c2)C1 | 
19 | 1380 | Cc1nc(-c2n[nH]c3ccc(-c4cncc(NC(=O)CC(C)C)c4)cc23)[nH]c1-c1ccccc1 | 
20 | 2660 | FC1(F)CCN(Cc2cncc(-c3ccc4[nH]nc(-c5nc(-c6cccc(C(F)(F)F)c6)c[nH]5)c4c3)c2)C1 | 
21 | 450 | Cc1nc(-c2n[nH]c3ccc(-c4cncc(OC[C@@H](N)CC(C)C)c4)cc23)[nH]c1-c1ccccc1 | 
22 | 910 | CC(C)CC(=O)Nc1cncc(-c2ccc3[nH]nc(-c4nc(-c5ccsc5)c[nH]4)c3c2)c1 | 
